Data set [1] in a line: Osmolality of aqueous solutions containing 28% iodine. The data set is classed as physicochemical. Conditions: aqueous solution.
In data set [2] the test system is mice. The data set is described as follows: LD50, I.V., in mice. It is filed as in vivo. Conditions: aqueous solution containing 28% iodine.
The nature of data set [3]: Neurotoxicity, intra-cerebral injection in mice (technique according to Haley and MacCornick). Particulars: mouse, in vivo, 700 mg/kg, at 700 mg I/kg, read-out: Neurotoxicity: death rate, intra-cerebral injection in mice. From the text:
**Technique according to Haley and MacCornick (British Journal

The nature of data set [4]: Neurotoxicity, intra-cisternal injection in rats (technique according to E. Melartin). Particulars: in vivo, at 50 mg I/rat, read-out: Neurotoxicity: death rate, intra-cisternal injection in rats. From the text:
*Technique according to E. Melartin (Investigative Radiology, 1970, 5, 1,

A short description of data set [5]: Viscosity of aqueous solution. It is filed as physicochemical. Particulars: 25 g iodine per 100 ml, 37° C. Here is the method:
The product is dissolved in water at a concentration of 25 g iodine per 100 ml. The solution has a viscosity of 7.4 centipoises at 37° C.

With `CC(=O)N(C)c1c(I)c(NC(=O)[C@H](O)[C@@H](O)[C@H](O)[C@H](O)CO)c(I)c(C(=O)N(C)N(C)C(=O)c2c(I)c(NC(=O)[C@H](O)[C@@H](O)[C@H](O)[C@H](O)CO)c(I)c(N(C)C(C)=O)c2I)c1I` [III, N,N'-bis(2,4,6-triiodo-3-N-methyl-N-acetylamino-5-N-gluconylamino-benzoyl)dimethyl hydrazide], the Osmolality in data set [1] is listed as 140 mosm/kg. Further, the “LD50, I.V., in mice” value in data set [2] was found to be 9 g I/kg.
In turn, `CC(=O)N(C)c1c(I)c(NC(=O)[C@H](O)[C@@H](O)[C@H](O)[C@H](O)CO)c(I)c(C(=O)NNC(=O)c2c(I)c(NC(=O)[C@H](O)[C@@H](O)[C@H](O)[C@H](O)CO)c(I)c(N(C)C(C)=O)c2I)c1I` [II, N,N'-bis(2,4,6-triiodo-3-N-methyl-N-acetylamino-5-N-gluconylamino-benzoyl)hydrazide] had an Osmolality in data set [1] of 204 mosm/kg. The “LD50, I.V., in mice” value in data set [2] was found to be 6 g I/kg.
As to `CC(=O)N(C)c1c(I)c(NC(=O)[C@H](O)[C@@H](O)[C@H](O)[C@H](O)CO)c(I)c(C(=O)NCCNC(=O)c2c(I)c(NC(=O)[C@H](O)[C@@H](O)[C@H](O)[C@H](O)CO)c(I)c(N(C)C(C)=O)c2I)c1I` [I, 1,2-N,N'-bis(2,4,6-triiodo-3-N-methyl-N-acetylamino-5-N-gluconylamino-benzoyl)-diamino-ethane], the mortality in data set [3] and in data set [4] was 0% throughout. In addition, the Osmolality in data set [1] was 200 mosm/kg. Also, in data set [5], the viscosity is listed as 7.4 centipoises. In addition, the “LD50, I.V., in mice” value in data set [2] came to 15 g I/kg.

The values are drawn from patent publication US4062934A, “X-ray contrast media” (Laboratoires Andre Guerbet, priority 1975, dated 1977).
